Data as given in patent US10391095B2, “DNA-PK inhibitors” (Vertex Pharmaceuticals Incorporated, priority 2012, dated 2019).

Each molecule was assayed against DNA-PK (Homo sapiens, UniProt P78527) (assay: DNA-PK inhibition assay (radiometric, 33P-ATP)). Settings: 100 μM ATP, competitive tight-binding fit.
Type: biochemical
Outline: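 Approx. 6 nM DNA-PK with 10 µg/mL sheared dsDNA, 0.8 mg/mL peptide substrate and 100 µM 33P-ATP in HEPES pH 7.5, 10 mM MgCl2; 45 min, phosphoric acid quench. Phosphopeptide captured on filter plates and counted by scintillation; Ki from a competitive tight-binding model fit.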

SMILES | Ki
Cc1ncc(-c2cc(NC[C@@H](C)c3cccc4scnc34)ncn2)cn1 [Compound 658] | < 30 nM
Cc1ccc(-c2cc(NC[C@@H](C)c3ccnc4c3OCCN4)ncn2)cn1 [Compound 660] | < 30 nM
CNC(=O)c1ccnc2c([C@H](C)CNc3cc(-c4cnn(C)c4)ncn3)cccc12 [Compound 661] | < 30 nM
Cc1ncc(-c2cc(NC[C@@H](C)c3cccc4nccnc34)ncn2)cn1 [Compound 662] | < 30 nM
CNC(=O)c1ccnc2c([C@H](C)CNc3cc(-c4cnc(OC5COC5)nc4)ncn3)cccc12 [Compound 666] | < 30 nM
Cc1ncc(-c2cc(NC[C@@H](C)c3cccc4cc(F)cnc34)ncn2)cn1 [Compound 667] | < 30 nM
Cc1ncc(-c2cc(NC[C@@H](C)c3cccc4c(C(F)F)ccnc34)ncn2)cn1 [Compound 669] | < 30 nM
CNC(=O)c1ccnc2c([C@H](C)CNc3cc(-c4ccc(CN5CCN(C)CC5)nc4)ncn3)cccc12 [Compound 670] | < 30 nM
CNC(=O)c1ccnc2c([C@H](C)CNc3cc(-c4ccc(C)cc4)ncn3)cccc12 [Compound 671] | < 30 nM
CNC(=O)c1ccnc2c([C@H](C)CNc3cc(-c4ccc(C(=O)O)cc4)ncn3)cccc12 [Compound 672] | < 30 nM
CNC(=O)c1ccnc2c([C@H](C)CNc3cc(-c4ccc(C(=O)O)nc4)ncn3)cccc12 [Compound 673] | < 30 nM
CNC(=O)c1ccnc2c([C@H](C)CNc3cc(-c4ccc(S(C)(=O)=O)cc4)ncn3)cccc12 [Compound 675] | < 30 nM
CCS(=O)(=O)c1ccc(-c2cc(NC[C@@H](C)c3cccc4c(C(=O)NC)ccnc34)ncn2)cc1 [Compound 676] | < 30 nM
CNC(=O)c1ccnc2c([C@H](C)CNc3cc(-c4ccc([S+](C)[O-])cc4)ncn3)cccc12 (some centres unmarked) [Compound 677] | < 30 nM
CNC(=O)c1ccnc2c([C@H](C)CNc3cc(-c4ccc(N5CCOCC5)cc4)ncn3)cccc12 [Compound 678] | < 30 nM
CNC(=O)c1ccnc2c([C@H](C)CNc3cc(-c4ccc(C(C)(C)C#N)cc4)ncn3)cccc12 [Compound 679] | < 30 nM
CNC(=O)c1ccnc2c([C@H](C)CNc3cc(-c4ccc(NS(C)(=O)=O)cc4)ncn3)cccc12 [Compound 680] | < 30 nM
CNC(=O)c1ccnc2c([C@H](C)CNc3cc(-c4ccc(C5(C#N)CC5)cc4)ncn3)cccc12 [Compound 681] | < 30 nM
CNC(=O)c1ccnc2c([C@H](C)CNc3cc(-c4ccc(OC)cc4)ncn3)cccc12 [Compound 682] | < 30 nM
CNC(=O)c1ccnc2c([C@H](C)CNc3cc(-c4ccc(C#N)cc4)ncn3)cccc12 [Compound 683] | < 30 nM
CNC(=O)c1ccnc2c([C@H](C)CNc3cc(-c4ccc(F)cc4)ncn3)cccc12 [Compound 684] | < 30 nM
CNC(=O)c1ccnc2c([C@H](C)CNc3cc(-c4ccc(O)cc4)ncn3)cccc12 [Compound 685] | < 30 nM
CNC(=O)c1c(F)cnc2c([C@H](C)CNc3cc(-c4cccs4)ncn3)cccc12 [Compound 689] | < 30 nM
Cc1ncc(-c2cc(NC[C@@H](C)c3cccc4c(=O)n(C)cnc34)ncn2)cn1 [Compound 697] | < 30 nM

SMILES | Ki
Cc1ccc(-c2cc(NC[C@@H](C)c3cccc4c(=O)n(C)cnc34)ncn2)cn1 [Compound 698] | < 30 nM
CNC(=O)c1ccnc2c([C@H](C)CNc3cc(-c4ccc(NC5CCN(Cc6ccccc6)C5)nc4)ncn3)cccc12 (some centres unmarked) [Compound 701] | < 30 nM
CNC(=O)c1ccnc2c([C@H](C)CNc3cc(-c4ccc(NCCn5cccc5)nc4)ncn3)cccc12 [Compound 702] | < 30 nM
CNC(=O)c1ccnc2c([C@H](C)CNc3cc(-c4ccc(NCCN5CCCC5=O)nc4)ncn3)cccc12 [Compound 703] | < 30 nM
CCCNCCNc1ccc(-c2cc(NC[C@@H](C)c3cccc4c(C(=O)NC)ccnc34)ncn2)cn1 [Compound 705] | < 30 nM
CNCCN(C)c1ccc(-c2cc(NC[C@@H](C)c3cccc4c(C(=O)NC)ccnc34)ncn2)cn1 [Compound 706] | < 30 nM
CNC(=O)c1ccnc2c([C@H](C)CNc3cc(-c4ccc(NCCNCCO)nc4)ncn3)cccc12 [Compound 707] | < 30 nM
CNC(=O)c1ccnc2c([C@H](C)CNc3cc(-c4ccc(NCCC(C)O)nc4)ncn3)cccc12 (some centres unmarked) [Compound 709] | < 30 nM
CNC(=O)c1ccnc2c([C@H](C)CNc3cc(-c4ccc(NCc5nc6ccccc6[nH]5)nc4)ncn3)cccc12 [Compound 710] | < 30 nM
CNC(=O)c1ccnc2c([C@H](C)CNc3cc(-c4ccc(N(C)C5CCS(=O)(=O)C5)nc4)ncn3)cccc12 (some centres unmarked) [Compound 711] | < 30 nM
CNC(=O)c1ccnc2c([C@H](C)CNc3cc(-c4ccc(NCc5cocn5)nc4)ncn3)cccc12 [Compound 712] | < 30 nM
CNC(=O)c1ccnc2c([C@H](C)CNc3cc(-c4ccc(N(C)CCOCC5CC5)nc4)ncn3)cccc12 [Compound 714] | < 30 nM
CNC(=O)c1ccnc2c([C@H](C)CNc3cc(-c4ccc(NCCCO)nc4)ncn3)cccc12 [Compound 715] | < 30 nM
CCN1CCN(c2ccc(-c3cc(NC[C@@H](C)c4cccc5c(C(=O)NC)ccnc45)ncn3)cn2)CC1=O [Compound 716] | < 30 nM
CNC(=O)c1ccnc2c([C@H](C)CNc3cc(-c4ccc(N(C)CCC(C)(C)O)nc4)ncn3)cccc12 [Compound 717] | < 30 nM
CNC(=O)c1ccnc2c([C@H](C)CNc3cc(-c4ccc(N5Cc6ccncc6C5)nc4)ncn3)cccc12 [Compound 718] | < 30 nM
CNC(=O)c1ccnc2c([C@H](C)CNc3cc(-c4ccc(NCCN5CCNC5=O)nc4)ncn3)cccc12 [Compound 719] | < 30 nM
CNC(=O)c1ccnc2c([C@H](C)CNc3cc(-c4ccc(N5C[C@@H]6CCN(C)[C@@H]6C5)nc4)ncn3)cccc12 [Compound 720] | < 30 nM
CNC(=O)c1ccnc2c([C@H](C)CNc3cc(-c4ccc(N5CCN(C(C)C)CC5)nc4)ncn3)cccc12 [Compound 722] | < 30 nM
CNC(=O)c1ccnc2c([C@H](C)CNc3cc(-c4ccc(N5CCCC5)nc4)ncn3)cccc12 [Compound 723] | < 30 nM
CCC(CO)Nc1ccc(-c2cc(NC[C@@H](C)c3cccc4c(C(=O)NC)ccnc34)ncn2)cn1 (some centres unmarked) [Compound 724] | < 30 nM
CNC(=O)c1ccnc2c([C@H](C)CNc3cc(-c4ccc(N[C@@H]5COC[C@H]5O)nc4)ncn3)cccc12 [Compound 726] | < 30 nM
CNC(=O)c1ccnc2c([C@H](C)CNc3cc(-c4ccc(OCCN5CCCC5)cc4)ncn3)cccc12 [Compound 727] | < 30 nM
CNC(=O)c1ccnc2c([C@H](C)CNc3cc(-c4cnc(N5CCCC(O)C5)nc4)ncn3)cccc12 (some centres unmarked) [Compound 728] | < 30 nM

SMILES | Ki
CNC(=O)c1ccnc2c([C@H](C)CNc3cc(-c4cnc(N5CCC(O)CC5)nc4)ncn3)cccc12 [Compound 729] | < 30 nM
CNC(=O)c1ccnc2c([C@H](C)CNc3cc(-c4ccc(C(C)O)nc4)ncn3)cccc12 (some centres unmarked) [Compound 730] | < 30 nM
CNC(=O)c1ccnc2c([C@H](C)CNc3cc(-c4ccc(N5CCC(C)(O)C5)nc4)ncn3)cccc12 (some centres unmarked) [Compound 732] | < 30 nM
CNC(=O)c1ccnc2c([C@H](C)CNc3cc(-c4ccc(N5CCOC(C)(C)C5)nc4)ncn3)cccc12 [Compound 733] | < 30 nM
CNC(=O)c1ccnc2c([C@H](C)CNc3cc(-c4ccc(N5CCC(C(C)(C)O)CC5)nc4)ncn3)cccc12 [Compound 734] | < 30 nM
CNC(=O)c1ccnc2c([C@H](C)CNc3cc(-c4ccc(N5CCC6(COC6)C5)nc4)ncn3)cccc12 [Compound 735] | < 30 nM
CNC(=O)c1ccnc2c([C@H](C)CNc3cc(-c4ccc(N5CC(CO)C5)nc4)ncn3)cccc12 [Compound 736] | < 30 nM
CNC(=O)c1ccnc2c([C@H](C)CNc3cc(-c4ccc(Nc5cnn(CCOC)c5)nc4)ncn3)cccc12 [Compound 737] | < 30 nM
CNC(=O)c1ccnc2c([C@H](C)CNc3cc(-c4ccc(NCCc5ccc(C)o5)nc4)ncn3)cccc12 [Compound 738] | < 30 nM
CNC(=O)c1c(-n2ccc(C)n2)cnc2c([C@H](C)CNc3cc(-c4ccc(C)nc4)ncn3)cccc12 [Compound 740] | < 30 nM
CNC(=O)c1ccnc2c([C@H](C)CNc3cc(N4CCn5ccnc5C4)ncn3)cccc12 [Compound 741] | < 30 nM
CC(=O)Nc1cnc2c([C@H](C)CNc3cc(-c4ccc(C)nc4)ncn3)cccc2c1 [Compound 742] | < 30 nM
CNC(=O)c1ccnc2c([C@H](C)CNc3cc(-n4ccnc4)ncn3)cccc12 [Compound 743] | < 30 nM
CNC(=O)c1ccnc2c([C@H](C)CNc3cc(-c4cnc(OC5CCCN(C(=O)OC(C)(C)C)C5)nc4)ncn3)cccc12 (some centres unmarked) [Compound 747] | < 30 nM
CNC(=O)c1ccnc2c([C@H](C)CNc3cc(-c4ccc(OC5COC5)cc4)ncn3)cccc12 [Compound 748] | < 30 nM
CNC(=O)c1ccnc2c([C@H](C)CNc3cc(-c4ccc(NC(C)=O)cc4)ncn3)cccc12 [Compound 749] | < 30 nM
CNC(=O)c1ccnc2c([C@H](C)CNc3cc(-c4ccc(NC(=O)OC)cc4)ncn3)cccc12 [Compound 750] | < 30 nM
CNC(=O)c1ccnc2c([C@H](C)CNc3cc(-c4ccc(C(=O)NCCCN(C)C)cc4)ncn3)cccc12 [Compound 751] | < 30 nM
CNC(=O)c1ccnc2c([C@H](C)CNc3cc(-c4ccc(C(=O)NC5CC5)cc4)ncn3)cccc12 [Compound 752] | < 30 nM
CNC(=O)c1ccnc2c([C@H](C)CNc3cc(-c4ccc(C(=O)NCCO)cc4)ncn3)cccc12 [Compound 753] | < 30 nM
CNC(=O)c1ccc(-c2cc(NC[C@@H](C)c3cccc4c(C(=O)NC)ccnc34)ncn2)cc1 [Compound 754] | < 30 nM
CNC(=O)c1ccnc2c([C@H](C)CNc3cc(-c4ccc(OC(C)(C)C)cc4)ncn3)cccc12 [Compound 755] | < 30 nM
CNC(=O)c1ccnc2c([C@H](C)CNc3cc(-c4ccc(N5CCN(CC(F)F)CC5)nc4)ncn3)cccc12 [Compound 756] | < 30 nM
